Patent US20040170622A1, “Methods and compositions for modulating XBP-1 activity” (President and Fellows of Harvard College, priority 2002, published 2004)

Key:
Format in all cases: cell-based
XBP-1 protein = XBP-1 protein species in MOPC315 and MM.1S myeloma cells treated with proteasome inhibitors (Western blot); settings: mouse myeloma MOPC315 and human myeloma MM.1S
Method: A variety of reversible and irreversible inhibitors that inhibit degradation of proteins by the ubiquitin-proteasome pathway have recently been identified. Proteasome inhibitors MG132 and PS341 block the rapid degradation of ubiquitinated proteins such as unspliced, but not spliced XBP-1. Myeloma cells express primarily spliced XBP-1 protein as expected. […] In this experiment lysates from MOPC315 cells were untreated or treated for 6 hours with 5 ug/ml of tunicamycin or 20 uM of MG-132 and were analyzed for the presence of XBP-1 using XBP-1 antibody. The two forms of XBP-1 were distinguished by their molecular weight.
In the presence of proteasome inhibitors, unspliced XBP-1 protein accumulates in the cell and is present at higher levels than the spliced protein. Lysates from Mm. 1S cells were untreated or treated for 1, 4, or 8 hours with 20 uM of PS-341 and were analyzed by western blotting with anti-XBP-1 antibody. Because unspliced, but not spliced XBP-1 is stabilized, the ratio of unspliced to spliced XBP-1 increases in cells treated with proteasome inhibitors.

[1] = test system: XBP-1u and XBP-1s proteins; test: XBP-1u and XBP-1s protein levels in J558 cells (Western blot); settings: J558 cells, 16 hrs
Method: (§1) (A) BiP and CHOP induction was examined by northern blot analysis after treating NIH3T3 or J558 myeloma cells with either MG-132 (20 μM), Tm (10 μg/ml) or both. Cells were pretreated with MG-132 for 1 hr and then further treated with Tm for 4 hrs. Ethidium bromide staining of the gel is shown at the bottom. (B) Inhibition of caspase-12 processing by proteasome inhibitors. Processing of full-length caspase-12 was examined by Western blotting in J558 myeloma cells treated with thapsigargin (1 μM) or PIs (20 μM) during the indicated time periods. (C) Alteration in the ratio of XBP-1 protein species in J558 cells were treated with increasing amounts of MG-132 for 16 hrs. Cells undergoing apoptosis were counted by Annexin V staining. (D) Time course of the XBP-1s to XBP-1u shift. Cells were treated with MG-132 (1 μM) for the indicated times and XBP-1u and spliced protein levels and cell death determined. (E) Alteration in the ratio of XBP-1 species in the MM.1s human myeloma line. Cells were treated with PS-341 (8 nM) in a time course analysis and XBP-1 protein species quantified.
Cells were lysed in RIPA buffer (50 mM Tris pH 7.4, 150 mM NaCl, 1 mM EDTA, 1% Triton X-100, 1% sodium deoxycholate, 0.1% SDS) and lysates subjected to SDS-PAGE and transferred to Hybond P membrane (Amersham-Pharmacia, Piscataway, N.J.). […] HeLa cells were cotransfected with XBP-1u and His-tagged ubiquitin expression plasmids (pMT 107, D. Bohmann, EMBL, Germany) by using the Lipofectamine-2000 reagent (Invitrogen, Carlsbad, Calif.). […] Degradation rates of XBP-1u and XBP-1s proteins were determined by pulse labeling J558 cells with ^35S Met/Cys for 1 hr and chasing for the indicated times.

XBP-1s and XBP-1u = test: Ratio of XBP-1 species in MM.1s line and primary MM cells; settings: human MM cell line MM.1s and primary MM cells from patient bone marrow
Method: as §1

J558 myeloma cells = test: Apoptosis of J558 myeloma cells (Annexin V staining); settings: agent alone
Method: as §1
(A) Synergistic effect of Tm and MG-132 on apoptosis. Annexin V positive cells were counted after treating J558 cells for 18 hrs with suboptimal concentrations of Tm and MG-132 as indicated. (B) J558-iXBP cells were generated by retroviral transduction of J558 cells with the U6 promoter based XBP-1 RNAi vector. (C) XBP-1 dependent gene expression in J558 cells that express control GFP, dn-XBP or iXBP-1 treated with Tm. Generation of dn-XBP-1 J558 cells by infection with a retrovirus containing dn-XBP cDNA inserted into the GFP-RV vector (N. N. lwakoshi et al., Nature Immunology 4, 321-329 (2003)). ERdj4, p58^IPK, BiP and CHOP gene expression were examined by Northern blot analysis. (D) Increased apoptosis in iXBP-1 and dn-XBP-1 expressing J558 cells. Cells were treated with the indicated amounts of Tm for 48 hrs and dead cells counted after Annexin V staining.
Cells were stained with annexin V-PE (BD PharMingen, San Jose, Calif.) as recommended and analyzed on a FACScan flow cytometer (Becton Dickinson, San Jose, Calif.).

[2] = test system: IRE1α-mediated XBP-1 mRNA splicing; test: XBP-1 mRNA level and splicing in J558 cells (Northern blot, RT-PCR); settings: J558, Tm 4 hrs; MG-132 10 μM, PS-341 10 μM, ZL3VS 50 μM, AdaAhxL3VS 50 μM
Method: (A) XBP-1 mRNA levels in ER stressed J558 cells treated with Tm for 4 hrs in the absence or presence of MG-132. Cells were pretreated with MG-132 for 1 hr before adding Tm. XBP-1 mRNA levels were determined by Northern blot analysis. […] (C) Effect of a panel of PIs on XBP-1 splicing. Cells were treated with Tm for 4 hrs in the absence or presence of MG-132 (10 μM), PS-341 (10 μM), Lactacystin (10 μM), ZL3VS (50 μM) or AdaAhxL3VS (50 μM), and XBP-1 mRNA splicing measured by RT-PCR analysis. (D) IRE-1α phosphorylation in NIH3T3 cells were treated with Tm as indicated after 2 hrs of pretreatment with MG-132 (10 μM).
Total RNA was prepared by using Trizol reagent, electrophoresed on 1.2% agarose, 6% formaldehyde gels and then transferred onto Genescreen Plus membrane, (NEN, Boston, Mass.). […] Probes for ERdj4 and p58^IPK were generated from cDNA excised from EST clones (ATCC, Manassas, Va.) using appropriate restriction enzymes (ERdj4, IMAGE: 1920927; p58^IPK, IMAGE:2646147).

CC(C)C[C@H](NC(=O)[C@H](Cc1ccccc1)NC(=O)c1cnccn1)B(O)O [PS-341]
amount of unspliced XBP-1 protein (XBP-1 protein): dramatic increase in the amount of unspliced XBP-1 protein
levels of active spliced XBP-1 protein (XBP-1 protein): concomitant decrease in levels of the active spliced XBP-1 protein
XBP-1u accumulation and XBP-1s decrease [1]: striking accumulation of XBP-1 u and a concomitant decrease in XBP-1s proteins
shift in the ratio of XBP-1s to XBP-1u (XBP-1s and XBP-1u): induced the same marked shift in the ratio of XBP-1s to XBP-1u
apoptosis in J558 cells (J558 myeloma cells): induced apoptosis in J558 cells
effect on Tm-induced XBP-1 mRNA splicing [2]: suppressed XBP-1 mRNA splicing as efficiently as MG-132
